GI50 and TGI data for 15 molecules are collected here from PubChem BioAssay (NCI).

Among the test systems are HCC-2998 colon; OVCAR-4 ovarian; MDA-MB-435; SK-MEL-5 melanoma; 786-0 renal; U251 CNS; OVCAR-3 ovarian; IGROV1 ovarian; CAKI-1 renal.
Assay in all cases: growth of human tumour cells (NCI), 48 h

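Interpolation was linear, between the two tested concentrations surrounding the appropriate level; five concentrations were tested over 48 hours in 96-well plates. The concentration for 50% growth inhibition is given as GI50. TGI denotes the concentration required for complete inhibition of growth.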

In the case of `COC(=O)c1c2c(c(C)[n+]([O-])c1C)C(=O)C(NCc1ccc(Br)cc1)=CC2=O`, the GI50 with HCC-2998 colon was 1.88 µM; in the assay on OVCAR-4 ovarian it was 0.704 µM; in the assay with MDA-MB-435, 1.55 µM; in the assay with SK-MEL-5 melanoma, 0.867 µM; in the assay with 786-0 renal it was 3.13 µM; in the assay with U251 CNS, 2.14 µM. Moreover, the GI50 with OVCAR-3 ovarian is 0.301 µM. Moreover, the TGI in the assay on HCC-2998 colon was found to be 4.83 µM; in the assay with OVCAR-4 ovarian, 2 µM; in the assay with MDA-MB-435 it was 2.96 µM; with SK-MEL-5 melanoma it was 2.11 µM; in the assay with 786-0 renal it was 11.2 µM; in the assay with U251 CNS it was 6.01 µM. The molecule also registered a TGI with OVCAR-3 ovarian of 0.957 µM.
On to `CCCN(CCC)c1c([N+](=O)[O-])cc(C(=O)N(CC)CC)cc1[N+](=O)[O-]`, for which the TGI in the assay with HCC-2998 colon was more than 100 µM; in the assay with IGROV1 ovarian, more than 100 µM; in the assay with SK-MEL-5 melanoma, 26.8 µM; with 786-0 renal it was more than 100 µM; with U251 CNS, 32.7 µM; in the assay on OVCAR-3 ovarian, 33.3 µM. The TGI in the assay on CAKI-1 renal is more than 100 µM.
As for `O=C(c1ccc([N+](=O)[O-])cc1[N+](=O)[O-])N(/N=C/C=C/c1ccccc1)c1nnc(-c2ccccc2)c(-c2ccccc2)n1`, the TGI is more than 100 µM with HCC-2998 colon; 76.6 µM in the assay on OVCAR-4 ovarian; more than 100 µM in the assay on IGROV1 ovarian; more than 100 µM in the assay on SK-MEL-5 melanoma; 56 µM with 786-0 renal; more than 100 µM in the assay on U251 CNS. The TGI is more than 100 µM with OVCAR-3 ovarian and 79.6 µM with CAKI-1 renal.
For the molecule `CO[C@@H]1CC[C@]2(C)OC[C@H](C)[C@@H]3C[C@@H](C)[C@@H](OC(C)=O)[C@@H]4[C@H]3[C@@H]2O[C@H]4C[C@@]1(C)O`, the GI50 in the assay on HCC-2998 colon, in the assay with OVCAR-4 ovarian, with IGROV1 ovarian, in the assay on MDA-MB-435, with SK-MEL-5 melanoma and in the assay with 786-0 renal was more than 100 µM in each case. For the same molecule, the figures for the GI50 in the assay on U251 CNS, with OVCAR-3 ovarian and in the assay on CAKI-1 renal were more than 100 µM, 78.1 µM and more than 100 µM, respectively. Besides, the TGI in the assay on HCC-2998 colon, in the assay with OVCAR-4 ovarian, in the assay with IGROV1 ovarian, with MDA-MB-435, in the assay on SK-MEL-5 melanoma and in the assay on 786-0 renal was more than 100 µM in each case. For the same molecule, the TGI in the assay on U251 CNS, in the assay on OVCAR-3 ovarian and in the assay on CAKI-1 renal was more than 100 µM each time.
In the case of `CCOc1ccc(OCC(=O)O)c2c1CCCC2=O`, the TGI in the assay with HCC-2998 colon, with OVCAR-4 ovarian, in the assay with IGROV1 ovarian, with SK-MEL-5 melanoma, in the assay on 786-0 renal and in the assay on U251 CNS was more than 100 µM throughout. The molecule further came in with a TGI with OVCAR-3 ovarian of more than 100 µM.
`COc1cc(OC)c(OC)cc1/C=N/NC(=O)N/N=C/c1cc(OC)c(OC)cc1OC`: the TGI in the assay on OVCAR-4 ovarian, in the assay on IGROV1 ovarian, with SK-MEL-5 melanoma, with 786-0 renal, in the assay on U251 CNS and with OVCAR-3 ovarian was more than 100 µM each time.
As for `COc1ccc(NC(=O)CSc2nnc(-c3ccc(NC(C)=O)cc3)o2)cc1`, the TGI in the assay with HCC-2998 colon worked out at 35.4 µM; in the assay on OVCAR-4 ovarian, 30.3 µM; with IGROV1 ovarian, 36.9 µM; in the assay with SK-MEL-5 melanoma it was 27.7 µM; in the assay with 786-0 renal it was 39.1 µM; in the assay with U251 CNS it was 33.7 µM. The molecule also came in with a TGI in the assay on OVCAR-3 ovarian of 35.5 µM.
As for `COC(=N)c1csc(C2OC(CO)C(O)C2O)n1` (stereo not given), the TGI in the assay with HCC-2998 colon, with OVCAR-4 ovarian, with IGROV1 ovarian, in the assay on 786-0 renal, in the assay with U251 CNS and with OVCAR-3 ovarian was more than 100 µM in each case. In the assay with CAKI-1 renal, this molecule registered a TGI of more than 100 µM.
Take `C[N+](C)(C)CC(=O)N/N=C(/Cc1cc(=O)oc2cc(O)ccc12)C(=O)Nc1ccc(Cl)cc1`: the TGI in the assay on HCC-2998 colon, in the assay on OVCAR-4 ovarian, with IGROV1 ovarian, with SK-MEL-5 melanoma, with 786-0 renal and in the assay with OVCAR-3 ovarian was more than 100 µM in each case. Further, in the assay with CAKI-1 renal, the TGI is more than 100 µM.
On to `O=S(=O)(OI(OI(OS(=O)(=O)C(F)(F)F)c1ccccc1)c1ccccc1)C(F)(F)F`, for which the TGI in the assay on HCC-2998 colon is more than 100 µM; in the assay with IGROV1 ovarian, more than 100 µM; with SK-MEL-5 melanoma, 85.4 µM; in the assay with 786-0 renal, more than 100 µM; in the assay on U251 CNS, more than 100 µM; with OVCAR-3 ovarian it was more than 100 µM. Moreover, the TGI in the assay on CAKI-1 renal was more than 100 µM.
On to `Cc1nc2c(N)ncnc2o1`, for which the TGI with HCC-2998 colon, in the assay with OVCAR-4 ovarian, in the assay on IGROV1 ovarian, in the assay with SK-MEL-5 melanoma, in the assay with 786-0 renal and in the assay on U251 CNS was more than 100 µM throughout. Further, the TGI with OVCAR-3 ovarian and in the assay on CAKI-1 renal was more than 100 µM in each case.
With `O=Cc1cc2c(cc1-c1cc3c(cc1C=O)OCO3)OCO2`, the TGI in the assay on HCC-2998 colon, with OVCAR-4 ovarian, in the assay with IGROV1 ovarian, with SK-MEL-5 melanoma, in the assay with 786-0 renal and in the assay with U251 CNS was more than 100 µM throughout. Also, the TGI in the assay with OVCAR-3 ovarian and in the assay with CAKI-1 renal was more than 100 µM in each case.
In the case of `CCCCCCCCc1cc2c(O)c(c1)Cc1cc(CCCCCCCC)cc(c1O)Cc1cc(CCCCCCCC)cc(c1O)Cc1cc(CCCCCCCC)cc(c1O)Cc1cc(CCCCCCCC)cc(c1O)Cc1cc(CCCCCCCC)cc(c1O)C2`, the TGI in the assay with HCC-2998 colon, in the assay with IGROV1 ovarian, with 786-0 renal, in the assay on U251 CNS and with CAKI-1 renal was more than 100 µM each time.
Consider `O=C1C=C(c2c(O)ccc3ccccc23)c2cc(O)ccc2C1=O`, for which the TGI in the assay on HCC-2998 colon came out at 33.6 µM; in the assay with OVCAR-4 ovarian, 26.1 µM; in the assay on IGROV1 ovarian, 30.3 µM; in the assay with SK-MEL-5 melanoma it was 28.6 µM; with 786-0 renal it was 33.9 µM; in the assay with U251 CNS, 28.4 µM. Further, the TGI was 22.5 µM in the assay with OVCAR-3 ovarian and 40.1 µM in the assay with CAKI-1 renal.
Regarding `CCOc1ccc(NC(=O)CC2SC(=Nc3ccc(C)cc3C)NC2=O)cc1` (stereo not given), the TGI in the assay with HCC-2998 colon, in the assay with OVCAR-4 ovarian, in the assay on IGROV1 ovarian, in the assay with SK-MEL-5 melanoma, with 786-0 renal and in the assay with U251 CNS was more than 100 µM in each case. Also, the TGI with OVCAR-3 ovarian and in the assay with CAKI-1 renal was more than 100 µM each time.
